# Results reported in ChEMBL document CHEMBL5291721, “A preclinical secondary pharmacology resource illuminates target-adverse drug reaction associations of marketed drugs” (Nat Commun, 2023).
# Legend:
# [1] = target: T1, Thromboxane A2 receptor (Homo sapiens, UniProt P21731); format: functional, cell-based
# T1 sequence (P21731 whole entry): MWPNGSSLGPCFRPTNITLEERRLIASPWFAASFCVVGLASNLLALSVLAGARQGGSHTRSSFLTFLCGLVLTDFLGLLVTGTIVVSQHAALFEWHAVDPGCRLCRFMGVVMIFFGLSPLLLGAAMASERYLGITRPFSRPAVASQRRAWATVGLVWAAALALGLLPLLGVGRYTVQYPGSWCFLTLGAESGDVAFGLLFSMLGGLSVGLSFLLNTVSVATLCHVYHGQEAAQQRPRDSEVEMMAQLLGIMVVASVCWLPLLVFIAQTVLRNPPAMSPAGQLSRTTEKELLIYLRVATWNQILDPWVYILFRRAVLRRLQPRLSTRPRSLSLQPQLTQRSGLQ
# [2] = target: T2, Adenosine receptor A3 (Homo sapiens, UniProt P0DMS8)
# T2 sequence (P0DMS8 whole entry): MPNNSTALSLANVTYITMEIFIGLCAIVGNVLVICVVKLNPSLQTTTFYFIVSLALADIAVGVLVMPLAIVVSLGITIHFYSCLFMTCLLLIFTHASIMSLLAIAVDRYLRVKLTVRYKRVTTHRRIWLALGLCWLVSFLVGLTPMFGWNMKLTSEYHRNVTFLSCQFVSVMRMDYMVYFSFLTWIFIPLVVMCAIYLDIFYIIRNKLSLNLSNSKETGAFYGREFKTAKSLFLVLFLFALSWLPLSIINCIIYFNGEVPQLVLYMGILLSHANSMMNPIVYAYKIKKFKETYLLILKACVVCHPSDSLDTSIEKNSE
# [3] = target: T3, Alpha-2A adrenergic receptor (Homo sapiens, UniProt P08913)
# T3 sequence (P08913 whole entry): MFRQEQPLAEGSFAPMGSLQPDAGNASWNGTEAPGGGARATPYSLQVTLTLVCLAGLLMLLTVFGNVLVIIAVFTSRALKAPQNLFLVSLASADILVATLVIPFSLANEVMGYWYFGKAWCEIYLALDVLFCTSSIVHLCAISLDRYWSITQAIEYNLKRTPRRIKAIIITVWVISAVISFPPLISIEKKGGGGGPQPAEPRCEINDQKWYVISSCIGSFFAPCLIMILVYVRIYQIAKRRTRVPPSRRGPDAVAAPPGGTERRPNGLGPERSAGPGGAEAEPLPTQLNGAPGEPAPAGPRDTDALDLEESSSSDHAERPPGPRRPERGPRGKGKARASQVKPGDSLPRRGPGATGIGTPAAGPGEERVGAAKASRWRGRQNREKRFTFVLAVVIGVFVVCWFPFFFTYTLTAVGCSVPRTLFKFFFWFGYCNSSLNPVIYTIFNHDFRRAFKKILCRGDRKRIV
# [4] = target: Acetylcholinesterase (Homo sapiens, UniProt P22303); format: functional
# Acetylcholinesterase, sequence (P22303 whole entry): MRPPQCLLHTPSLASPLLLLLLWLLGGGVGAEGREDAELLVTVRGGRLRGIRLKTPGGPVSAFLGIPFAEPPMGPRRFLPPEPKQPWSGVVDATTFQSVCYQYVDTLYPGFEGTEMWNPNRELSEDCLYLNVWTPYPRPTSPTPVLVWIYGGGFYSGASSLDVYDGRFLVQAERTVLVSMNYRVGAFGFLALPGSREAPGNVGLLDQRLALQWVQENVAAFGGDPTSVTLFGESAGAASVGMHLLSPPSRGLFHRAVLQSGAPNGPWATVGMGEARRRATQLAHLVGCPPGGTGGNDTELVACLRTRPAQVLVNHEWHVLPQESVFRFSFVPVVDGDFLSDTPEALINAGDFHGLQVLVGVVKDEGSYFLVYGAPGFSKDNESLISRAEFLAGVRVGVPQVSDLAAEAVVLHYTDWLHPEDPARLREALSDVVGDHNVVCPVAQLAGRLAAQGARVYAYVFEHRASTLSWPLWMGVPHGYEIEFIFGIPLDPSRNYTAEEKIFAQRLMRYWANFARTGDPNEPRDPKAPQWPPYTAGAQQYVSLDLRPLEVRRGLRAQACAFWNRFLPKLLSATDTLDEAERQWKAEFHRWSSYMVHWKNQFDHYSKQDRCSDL
# [5] = target: Sodium-dependent noradrenaline transporter (Homo sapiens, UniProt P23975)
# Sodium-dependent noradrenaline transporter, sequence (P23975 whole entry): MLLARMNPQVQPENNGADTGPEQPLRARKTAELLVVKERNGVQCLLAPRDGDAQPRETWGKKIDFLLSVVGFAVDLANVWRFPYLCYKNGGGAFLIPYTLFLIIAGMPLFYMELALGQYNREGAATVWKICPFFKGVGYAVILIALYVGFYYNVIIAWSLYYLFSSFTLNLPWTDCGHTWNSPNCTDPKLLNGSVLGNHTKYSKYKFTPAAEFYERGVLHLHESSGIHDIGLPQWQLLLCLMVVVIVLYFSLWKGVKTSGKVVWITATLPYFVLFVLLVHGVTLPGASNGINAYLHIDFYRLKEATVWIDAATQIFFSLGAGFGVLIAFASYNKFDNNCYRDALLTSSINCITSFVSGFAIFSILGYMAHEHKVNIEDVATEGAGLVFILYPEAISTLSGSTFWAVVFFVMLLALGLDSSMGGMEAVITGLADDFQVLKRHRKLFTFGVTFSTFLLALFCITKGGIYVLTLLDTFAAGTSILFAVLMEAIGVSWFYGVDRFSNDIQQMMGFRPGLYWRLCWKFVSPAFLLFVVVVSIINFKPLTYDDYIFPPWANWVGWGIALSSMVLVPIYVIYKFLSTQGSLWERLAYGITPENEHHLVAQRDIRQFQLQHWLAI
# [6] = target: T4, Prostaglandin G/H synthase 1 (Homo sapiens, UniProt P23219); format: functional
# T4 sequence (P23219 whole entry): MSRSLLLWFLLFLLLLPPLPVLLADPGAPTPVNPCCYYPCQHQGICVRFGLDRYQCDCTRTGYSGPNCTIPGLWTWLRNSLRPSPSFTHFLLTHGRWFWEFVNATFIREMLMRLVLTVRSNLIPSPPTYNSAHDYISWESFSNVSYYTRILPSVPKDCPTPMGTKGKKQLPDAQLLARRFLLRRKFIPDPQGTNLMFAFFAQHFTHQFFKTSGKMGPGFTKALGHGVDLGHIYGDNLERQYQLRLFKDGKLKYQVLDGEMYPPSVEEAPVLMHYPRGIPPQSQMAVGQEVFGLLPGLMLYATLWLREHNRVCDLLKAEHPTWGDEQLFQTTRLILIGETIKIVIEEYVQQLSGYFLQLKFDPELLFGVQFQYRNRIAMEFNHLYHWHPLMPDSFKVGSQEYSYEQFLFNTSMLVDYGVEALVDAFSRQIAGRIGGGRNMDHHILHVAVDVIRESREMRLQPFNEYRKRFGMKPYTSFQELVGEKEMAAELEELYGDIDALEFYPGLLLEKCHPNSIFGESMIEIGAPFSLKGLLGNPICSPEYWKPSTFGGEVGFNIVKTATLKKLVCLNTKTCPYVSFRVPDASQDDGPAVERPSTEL
# [7] = target: D(3) dopamine receptor (Homo sapiens, UniProt P35462)
# [8] = target: D(1A) dopamine receptor (Homo sapiens, UniProt P21728)
# D(1A) dopamine receptor, sequence (P21728 whole entry): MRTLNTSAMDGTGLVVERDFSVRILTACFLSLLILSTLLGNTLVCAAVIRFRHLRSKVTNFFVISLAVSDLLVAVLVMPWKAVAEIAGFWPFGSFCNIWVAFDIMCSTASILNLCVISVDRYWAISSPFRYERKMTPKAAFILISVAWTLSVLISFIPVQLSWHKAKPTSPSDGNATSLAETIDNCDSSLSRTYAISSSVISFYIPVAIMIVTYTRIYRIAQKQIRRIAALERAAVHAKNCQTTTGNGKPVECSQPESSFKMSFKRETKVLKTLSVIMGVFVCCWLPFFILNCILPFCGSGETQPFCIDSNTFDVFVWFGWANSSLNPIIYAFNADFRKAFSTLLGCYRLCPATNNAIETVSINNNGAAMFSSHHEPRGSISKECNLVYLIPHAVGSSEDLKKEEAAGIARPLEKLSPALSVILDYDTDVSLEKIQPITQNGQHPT
# [9] = target: T5, Estrogen receptor (Homo sapiens, UniProt P03372)
# T5 sequence (P03372 whole entry): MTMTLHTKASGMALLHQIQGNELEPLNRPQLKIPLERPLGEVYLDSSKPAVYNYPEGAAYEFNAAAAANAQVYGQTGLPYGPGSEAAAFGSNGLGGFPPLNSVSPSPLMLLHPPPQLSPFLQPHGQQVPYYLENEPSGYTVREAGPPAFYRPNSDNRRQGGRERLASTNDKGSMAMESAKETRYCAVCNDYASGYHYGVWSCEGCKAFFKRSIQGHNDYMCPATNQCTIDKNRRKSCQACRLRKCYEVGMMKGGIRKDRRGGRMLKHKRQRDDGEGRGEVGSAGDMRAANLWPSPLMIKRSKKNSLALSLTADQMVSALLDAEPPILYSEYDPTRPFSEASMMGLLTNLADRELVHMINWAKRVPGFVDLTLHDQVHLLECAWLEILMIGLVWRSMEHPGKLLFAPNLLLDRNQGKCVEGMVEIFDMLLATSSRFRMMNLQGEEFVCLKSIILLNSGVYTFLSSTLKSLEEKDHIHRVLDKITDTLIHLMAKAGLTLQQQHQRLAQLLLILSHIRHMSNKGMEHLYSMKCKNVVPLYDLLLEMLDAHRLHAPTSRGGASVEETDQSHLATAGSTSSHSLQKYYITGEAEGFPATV
# [10] = target: Histamine H3 receptor (Homo sapiens, UniProt Q9Y5N1)
# Histamine H3 receptor, sequence (Q9Y5N1 whole entry): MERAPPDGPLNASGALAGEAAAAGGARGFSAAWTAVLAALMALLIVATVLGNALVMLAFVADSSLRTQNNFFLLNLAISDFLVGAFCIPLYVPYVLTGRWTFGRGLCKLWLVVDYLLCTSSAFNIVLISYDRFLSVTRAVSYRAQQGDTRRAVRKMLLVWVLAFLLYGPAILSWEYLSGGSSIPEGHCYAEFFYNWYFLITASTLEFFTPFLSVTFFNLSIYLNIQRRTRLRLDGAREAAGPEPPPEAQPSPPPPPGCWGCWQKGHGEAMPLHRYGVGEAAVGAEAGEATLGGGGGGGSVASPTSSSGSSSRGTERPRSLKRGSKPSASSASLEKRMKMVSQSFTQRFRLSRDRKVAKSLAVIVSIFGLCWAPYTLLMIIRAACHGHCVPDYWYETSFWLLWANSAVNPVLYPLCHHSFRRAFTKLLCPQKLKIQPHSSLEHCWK
# [11] = target: T1, Thromboxane A2 receptor; format: functional, cell-based; remark: listed apart in the source
# [12] = target: cGMP-inhibited 3',5'-cyclic phosphodiesterase 3A (Homo sapiens, UniProt Q14432); format: functional
# cGMP-inhibited 3',5'-cyclic phosphodiesterase 3A, sequence (Q14432 whole entry): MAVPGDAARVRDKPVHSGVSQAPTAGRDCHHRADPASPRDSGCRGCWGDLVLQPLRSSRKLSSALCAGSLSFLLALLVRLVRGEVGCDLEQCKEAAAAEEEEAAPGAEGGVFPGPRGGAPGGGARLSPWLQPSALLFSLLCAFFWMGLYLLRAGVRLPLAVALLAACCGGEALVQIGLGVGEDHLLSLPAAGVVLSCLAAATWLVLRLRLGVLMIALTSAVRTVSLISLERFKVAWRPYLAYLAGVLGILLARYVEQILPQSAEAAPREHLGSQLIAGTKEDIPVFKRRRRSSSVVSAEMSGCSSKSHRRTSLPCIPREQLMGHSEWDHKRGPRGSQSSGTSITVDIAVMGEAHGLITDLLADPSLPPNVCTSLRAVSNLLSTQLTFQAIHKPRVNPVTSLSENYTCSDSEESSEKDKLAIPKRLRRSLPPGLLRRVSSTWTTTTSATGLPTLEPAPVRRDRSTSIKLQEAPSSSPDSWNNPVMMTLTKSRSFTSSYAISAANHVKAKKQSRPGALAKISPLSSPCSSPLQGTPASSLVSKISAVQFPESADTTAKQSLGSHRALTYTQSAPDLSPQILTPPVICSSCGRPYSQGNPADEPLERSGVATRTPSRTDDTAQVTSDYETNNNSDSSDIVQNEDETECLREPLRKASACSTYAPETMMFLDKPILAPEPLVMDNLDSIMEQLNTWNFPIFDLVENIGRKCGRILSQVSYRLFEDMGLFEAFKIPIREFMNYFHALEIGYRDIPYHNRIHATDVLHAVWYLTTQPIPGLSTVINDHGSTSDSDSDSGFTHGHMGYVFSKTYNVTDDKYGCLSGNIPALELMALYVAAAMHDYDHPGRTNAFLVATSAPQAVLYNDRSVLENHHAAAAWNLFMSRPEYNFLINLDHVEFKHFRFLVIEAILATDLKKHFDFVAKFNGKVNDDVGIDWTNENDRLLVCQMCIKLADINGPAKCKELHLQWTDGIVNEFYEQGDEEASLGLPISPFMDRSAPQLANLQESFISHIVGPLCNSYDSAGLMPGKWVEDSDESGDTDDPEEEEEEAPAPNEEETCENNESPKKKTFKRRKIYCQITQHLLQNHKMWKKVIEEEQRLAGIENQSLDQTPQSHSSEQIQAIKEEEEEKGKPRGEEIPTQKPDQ
# [13] = target: T6, Alpha-1A adrenergic receptor (Homo sapiens, UniProt P35348); format: functional, cell-based
# T6 sequence (P35348 whole entry): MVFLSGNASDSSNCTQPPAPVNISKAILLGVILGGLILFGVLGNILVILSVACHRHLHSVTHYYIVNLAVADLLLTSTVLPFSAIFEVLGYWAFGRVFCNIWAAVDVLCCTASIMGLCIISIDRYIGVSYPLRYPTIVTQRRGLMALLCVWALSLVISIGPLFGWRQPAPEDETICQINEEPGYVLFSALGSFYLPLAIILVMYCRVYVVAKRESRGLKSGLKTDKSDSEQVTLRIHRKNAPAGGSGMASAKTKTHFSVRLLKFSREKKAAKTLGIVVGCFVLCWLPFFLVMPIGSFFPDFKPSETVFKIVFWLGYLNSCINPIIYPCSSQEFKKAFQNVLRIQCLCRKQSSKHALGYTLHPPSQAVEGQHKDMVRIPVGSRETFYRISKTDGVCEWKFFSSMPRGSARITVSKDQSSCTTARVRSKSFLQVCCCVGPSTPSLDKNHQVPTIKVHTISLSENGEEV
# [14] = target: Mu-type opioid receptor (Homo sapiens, UniProt P35372)
# Mu-type opioid receptor, sequence (P35372 whole entry): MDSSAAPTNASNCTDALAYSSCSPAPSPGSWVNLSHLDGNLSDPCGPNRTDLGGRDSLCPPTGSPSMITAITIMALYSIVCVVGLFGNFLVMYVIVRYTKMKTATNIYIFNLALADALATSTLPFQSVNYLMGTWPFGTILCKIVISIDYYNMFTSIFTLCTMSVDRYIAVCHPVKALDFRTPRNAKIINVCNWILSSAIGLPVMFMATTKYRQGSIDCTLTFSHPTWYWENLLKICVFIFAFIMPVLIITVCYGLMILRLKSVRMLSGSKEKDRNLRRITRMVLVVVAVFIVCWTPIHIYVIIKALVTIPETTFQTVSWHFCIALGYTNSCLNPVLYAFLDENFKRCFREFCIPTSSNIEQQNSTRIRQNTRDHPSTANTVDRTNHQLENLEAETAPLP
# [15] = target: T6, Alpha-1A adrenergic receptor; format: functional, cell-based; remark: listed apart in the source
# [16] = target: Sodium-dependent serotonin transporter (Homo sapiens, UniProt P31645)
# Sodium-dependent serotonin transporter, sequence (P31645 whole entry): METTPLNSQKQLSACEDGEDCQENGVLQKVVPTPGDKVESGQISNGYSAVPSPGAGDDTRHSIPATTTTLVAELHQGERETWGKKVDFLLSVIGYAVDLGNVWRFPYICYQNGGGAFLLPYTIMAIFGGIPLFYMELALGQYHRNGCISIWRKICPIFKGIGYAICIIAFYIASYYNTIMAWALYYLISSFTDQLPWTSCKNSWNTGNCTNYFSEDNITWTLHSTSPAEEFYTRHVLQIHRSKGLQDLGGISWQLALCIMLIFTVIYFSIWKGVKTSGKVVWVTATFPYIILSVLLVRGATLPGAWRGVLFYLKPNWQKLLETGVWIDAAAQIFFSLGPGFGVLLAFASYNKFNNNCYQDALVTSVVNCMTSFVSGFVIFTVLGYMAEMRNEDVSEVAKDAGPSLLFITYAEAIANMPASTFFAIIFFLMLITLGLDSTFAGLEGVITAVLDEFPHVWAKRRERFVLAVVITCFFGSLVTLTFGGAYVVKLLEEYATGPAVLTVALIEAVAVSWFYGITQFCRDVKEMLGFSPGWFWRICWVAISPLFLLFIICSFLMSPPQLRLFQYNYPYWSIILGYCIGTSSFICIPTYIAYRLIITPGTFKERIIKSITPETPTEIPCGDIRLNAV
# [17] = target: T4, Prostaglandin G/H synthase 1; format: functional; remark: listed apart in the source
# Further: assay procedure not described here.
SMILES,AC50 [1],AC50 [2],AC50 [3],AC50 [4],AC50 [5],AC50 [6],AC50 [7],AC50 [8],AC50 [9],AC50 [10],AC50 [11],AC50 [12],AC50 [13],AC50 [14],AC50 [15],AC50 [16],AC50 [17]
Nc1nc(N)nc(Nc2ccc([As]3SCC(CO)S3)cc2)n1 (stereo not given) [MELARSOPROL],> 30 µM,1.92 µM,> 30 µM,> 30 µM,> 30 µM,> 30 µM,> 30 µM,> 30 µM,> 30 µM,> 30 µM,> 30 µM,> 30 µM,> 30 µM,> 30 µM,> 30 µM,> 30 µM,23.5 µM
CO[C@H]1[C@@H](O)C[C@H](O[C@H]2[C@@H](O)C[C@H](O[C@H]3[C@@H](O)C[C@H](O[C@H]4CC[C@@]5(C)[C@H](CC[C@@H]6[C@@H]5C[C@@H](O)[C@]5(C)[C@@H](C7=CC(=O)OC7)CC[C@]65O)C4)O[C@@H]3C)O[C@@H]2C)O[C@@H]1C [METILDIGOXIN],> 30 µM,> 30 µM,> 30 µM,> 30 µM,> 30 µM,> 30 µM,> 30 µM,> 30 µM,> 30 µM,> 30 µM,> 30 µM,> 30 µM,> 30 µM,> 30 µM,> 30 µM,> 30 µM,> 30 µM
CC1(C)S[C@@H]2[C@H](NC(=O)[C@H](NC(=O)N3CCN(S(C)(=O)=O)C3=O)c3ccccc3)C(=O)N2[C@H]1C(=O)O [MEZLOCILLIN],> 30 µM,> 30 µM,> 30 µM,> 30 µM,> 30 µM,> 30 µM,> 30 µM,> 30 µM,> 30 µM,> 30 µM,> 30 µM,> 30 µM,> 30 µM,> 30 µM,> 30 µM,> 30 µM,> 30 µM
CCOC(=O)[C@H](CCc1ccccc1)N[C@@H](C)C(=O)N1Cc2cc(OC)c(OC)cc2C[C@H]1C(=O)O [MOEXIPRIL],> 30 µM,> 30 µM,> 30 µM,> 30 µM,> 30 µM,> 30 µM,> 30 µM,> 30 µM,> 30 µM,> 30 µM,> 30 µM,25.4 µM,> 30 µM,> 30 µM,> 30 µM,> 30 µM,> 30 µM
CC(c1ccc(Cl)c(Cl)c1)N1N=C(N)CC1=O (stereo not given) [MUZOLIMINE],> 30 µM,> 30 µM,> 30 µM,> 30 µM,> 30 µM,> 30 µM,> 30 µM,> 30 µM,> 30 µM,> 30 µM,> 30 µM,> 30 µM,> 30 µM,> 30 µM,> 30 µM,> 30 µM,13.3 µM
